≈ marks a conversion by molar mass, not a printed value. Where “and” joins values, the source holds several entries; their conditions need not be identical. Equal values may be shown once.
Experiments:
Assay in all cases: ≥ marks a high value that may be exact or a test limit, other limits are often not marked, values filed in µg/mL are converted to µM
[1] = tested on: Acinetobacter baumannii ATCC 19606
[2] = tested on: Escherichia coli ATCC 25922
[3] = tested on: Klebsiella pneumoniae ATCC 13883
[4] = tested on: Pseudomonas aeruginosa ATCC 27853
[5] = tested on: Staphylococcus aureus ATCC 29213
[6] = tested on: Pseudomonas aeruginosa ATCC 9027
[7] = tested on: Staphylococcus aureus ATCC 6538
[8] = tested on: Staphylococcus aureus NCTC 8325
[9] = tested on: Candida albicans ATCC 90028
[10] = tested on: Staphylococcus aureus ATCC 25923

SMILES | MIC [2] | MIC [8] [µM] | other results
CC(C)C[C@H](NC(=O)[C@H](C)NC(=O)[C@H](CCCCN)NC(=O)[C@H](CCCCN)NC(=O)[C@H](CC(C)C)NC(=O)[C@H](C)NC(=O)[C@H](CCCCN)NC(=O)[C@H](CC(C)C)NC(=O)[C@H](C)NC(=O)[C@H](CCCCN)NC(=O)[C@H](CCCCN)NC(=O)[C@H](CC(C)C)NC(=O)[C@H](C)NC(=O)[C@H](CC(C)C)NC(=O)[C@H](C)NC(=O)[C@@H](N)Cc1ccccc1)C(N)=O [FALALKKALKALKKAL] |  |  | MIC [6]: 28.9 µM (≈ 50 µg/mL); MIC [7]: 2.89 µM (≈ 5 µg/mL)
CC[C@H](C)[C@H](NC(=O)[C@H](CCCCN)NC(=O)[C@H](CS)NC(=O)[C@H](Cc1ccccc1)NC(=O)[C@@H](NC(=O)CNC(=O)[C@@H](NC(=O)[C@@H]1CCCN1C(=O)[C@H](Cc1ccccc1)NC(=O)[C@@H](N)Cc1ccccc1)[C@@H](C)CC)C(C)C)C(=O)N[C@@H](Cc1ccccc1)C(=O)N[C@@H](CCCCN)C(=O)N[C@H](C(=O)N[C@@H](CS)C(=O)O)[C@@H](C)O [FFPIGVFCKIFKTC] | 30 µM (≈ 49.5 µg/mL) | ≥ 100 | 
CC[C@H](C)[C@H](NC(=O)[C@H](CC(C)C)NC(=O)[C@H](CO)NC(=O)[C@H](C)NC(=O)[C@H](Cc1ccccc1)NC(=O)[C@H](CC(C)C)NC(=O)[C@@H]1CCCN1C(=O)[C@H](CC(C)C)NC(=O)[C@@H](N)Cc1ccccc1)C(=O)NCC(=O)N[C@@H](CCCCN)C(=O)N[C@@H](CC(C)C)C(=O)N[C@@H](CC(C)C)C(N)=O [FLPLFASLIGKLL] |  | ≥ 140 | 
CSCC[C@H](NC(=O)[C@H](CC(C)C)NC(=O)[C@H](CO)NC(=O)CNC(=O)[C@H](C)NC(=O)[C@@H](NC(=O)[C@H](CC(N)=O)NC(=O)[C@H](CCCCN)NC(=O)[C@H](CC(C)C)NC(=O)[C@@H](NC(=O)[C@H](CC(N)=O)NC(=O)[C@H](CCCCN)NC(=O)CNC(=O)[C@@H](NC(=O)[C@H](CCCCN)NC(=O)[C@H](CCCCN)NC(=O)[C@H](Cc1ccccc1)NC(=O)[C@H](C)NC(=O)[C@H](CO)NC(=O)[C@H](Cc1ccccc1)NC(=O)[C@H](CC(C)C)NC(=O)CN)C(C)C)C(C)C)C(C)C)C(=O)N[C@@H](CC(=O)O)C(=O)N[C@@H](CC(N)=O)C(=O)N[C@@H](CC(C)C)C(=O)N[C@@H](CCCCN)C(=O)N[C@H]1CSSC[C@@H](C(=O)O)NC(=O)[C@H](CCC(=O)O)NC(=O)CNC(=O)[C@H](CO)NC(=O)[C@H](C(C)C)NC(=O)[C@H](CCCCN)NC1=O [GLFSAFKKVGKNVLKNVAGSLMDNLKCKVSGEC] | 3 µM (≈ 10.5 µg/mL) | ≥ 50 | 
CC[C@H](C)[C@H](NC(=O)CNC(=O)[C@H](CCC(N)=O)NC(=O)[C@H](Cc1ccccc1)NC(=O)[C@@H](NC(=O)[C@H](CCCCN)NC(=O)[C@H](CCCCN)NC(=O)[C@H](CC(C)C)NC(=O)[C@H](C)NC(=O)[C@H](CCCCN)NC(=O)[C@H](CC(C)C)NC(=O)CN)C(C)C)C(=O)N[C@@H](Cc1cnc[nH]1)C(=O)N[C@@H](CCC(=O)O)C(=O)N[C@@H](C)C(=O)N[C@H](C(=O)N[C@@H](CCCCN)C(=O)N[C@@H](CC(C)C)C(=O)N[C@H](C(=O)N[C@@H](CC(N)=O)C(=O)N[C@@H](CC(N)=O)C(=O)N[C@@H](Cc1cnc[nH]1)C(=O)N[C@H](C(=O)N[C@@H](CCC(N)=O)C(=O)O)C(C)C)[C@@H](C)CC)[C@@H](C)CC [GLKALKKVFQGIHEAIKLINNHVQ] | 10 µM (≈ 27 µg/mL) | ≥ 80 | 
CC[C@H](C)[C@H](NC(=O)CNC(=O)[C@H](CCC(N)=O)NC(=O)[C@H](Cc1ccccc1)NC(=O)[C@@H](NC(=O)[C@H](CCCCN)NC(=O)[C@H](CCCCN)NC(=O)[C@H](CC(C)C)NC(=O)[C@H](C)NC(=O)[C@H](CC(N)=O)NC(=O)[C@H](CC(C)C)NC(=O)CN)C(C)C)C(=O)N[C@@H](Cc1cnc[nH]1)C(=O)N[C@@H](CCC(=O)O)C(=O)N[C@@H](C)C(=O)N[C@@H](Cc1ccccc1)C(=O)N[C@@H](CCCCN)C(=O)N[C@@H](CC(C)C)C(=O)N[C@H](C(=O)N[C@@H](CC(N)=O)C(=O)N[C@@H](CC(N)=O)C(=O)N[C@@H](Cc1cnc[nH]1)C(=O)N[C@H](C(=O)N[C@@H](CCC(N)=O)C(=O)O)C(C)C)[C@@H](C)CC [GLNALKKVFQGIHEAFKLINNHVQ] | 20 µM (≈ 54.4 µg/mL) | ≥ 160 | 
CC(C)C[C@H](NC(=O)CNC(=O)[C@@H](NC(=O)[C@@H]1CCCN1C(=O)[C@H](CC(C)C)NC(=O)CNC(=O)[C@H](CC(N)=O)NC(=O)[C@H](CC(N)=O)NC(=O)[C@H](Cc1ccc(O)cc1)NC(=O)[C@@H](NC(=O)[C@H](CCCN=C(N)N)NC(=O)[C@H](CS)NC(=O)[C@H](CCCN=C(N)N)NC(=O)[C@H](Cc1cnc[nH]1)NC(=O)[C@@H](N)CCCCN)C(C)C)[C@@H](C)O)C(=O)N[C@@H](Cc1ccc(O)cc1)C(=O)N[C@@H](CCCN=C(N)N)C(=O)N[C@@H](Cc1c[nH]c2ccccc12)C(=O)N[C@@H](CS)C(N)=O [KHRCRVYNNGLPTGLYRWC] |  |  | MIC [7]: 4.8 µM (≈ 11.2 µg/mL)
CC(C)C[C@H](NC(=O)[C@H](CCCN=C(N)N)NC(=O)[C@H](CCCN=C(N)N)NC(=O)[C@H](C)NC(=O)[C@H](Cc1c[nH]c2ccccc12)NC(=O)CNC(=O)[C@H](CCCN=C(N)N)NC(=O)[C@@H](N)CCCN=C(N)N)C(=O)N[C@@H](C)C(=O)N[C@@H](Cc1ccccc1)C(=O)N[C@@H](C)C(=O)N[C@@H](Cc1ccccc1)C(=O)NCC(=O)N[C@@H](CCCN=C(N)N)C(=O)N[C@@H](CCCN=C(N)N)C(N)=O [RRGWARRLAFAFGRR] | 12.5 µM and 30 µM |  | MIC [1]: 13.8 µM and 22 µM; MIC [3]: 30 µM (≈ 56.3 µg/mL); MIC [10]: > 30 µM
CC(C)C[C@H](NC(=O)[C@H](C)NC(=O)[C@H](CCCCN)NC(=O)[C@H](CCCCN)NC(=O)[C@H](CC(C)C)NC(=O)[C@H](C)NC(=O)[C@H](CCCCN)NC(=O)[C@H](CCCCN)NC(=O)[C@H](CC(C)C)NC(=O)[C@H](CCCCN)NC(=O)[C@H](CCCCN)NC(=O)[C@H](CC(C)C)NC(=O)[C@H](C)NC(=O)[C@H](CCCCN)NC(=O)[C@H](CCCCN)NC(=O)[C@H](CC(C)C)NC(=O)[C@H](C)NC(=O)[C@H](CCCCN)NC(=O)[C@H](CC(C)C)NC(=O)[C@H](C)NC(=O)[C@H](CC(C)C)NC(=O)[C@H](C)NC(=O)[C@@H](N)C(C)C)C(N)=O [VALALKALKKALKKLKKALKKAL] |  |  | MIC [6]: > 80.3 µM; MIC [7]: > 80.3 µM

The next lines start with results.

MIC [2] | MIC [8] [µM] | SMILES | other results
22.6 µM (≈ 41.4 µg/mL) |  | CC[C@H](C)[C@@H]1NC(=O)[C@H](CO)NC(=O)[C@H](C(C)C)NC(=O)[C@H]([C@@H](C)O)NC(=O)[C@H](Cc2c[nH]c3ccccc23)NC(=O)[C@@H](NC(=O)CNC(=O)[C@H](CCCCN)NC(=O)[C@H](CCCCN)NC(=O)[C@H](C)NC(=O)[C@H](C)N)CSSC[C@@H](C(=O)N[C@@H](Cc2ccccc2)C(N)=O)NC(=O)[C@@H]2CCCN2C(=O)[C@H](CCCCN)NC(=O)[C@@H]2CCCN2C(=O)[C@@H]2CCCN2C1=O [AAKKGCWTVSIPPKPCF] | MIC [1]: 16 µM (≈ 29.3 µg/mL); MIC [3]: 8 µM (≈ 14.6 µg/mL); MIC [4]: 32 µM (≈ 58.6 µg/mL); MIC [5]: 16 µM (≈ 29.3 µg/mL)
14 µM (≈ 35.9 µg/mL) | 7 (≈ 17.9 µg/mL) | CC[C@H](C)[C@@H]1NC(=O)[C@H](C)NC(=O)[C@@H](NC(=O)[C@H](Cc2ccccc2)NC(=O)[C@@H](NC(=O)[C@H](CCCCN)NC(=O)[C@@H]2CCCN2C(=O)[C@H](Cc2ccccc2)NC(=O)[C@@H](NC(=O)[C@H](CCCCN)NC(=O)[C@H](C)NC(=O)[C@H](C)NC(=O)[C@@H](NC(=O)CNC(=O)[C@H](C)NC(=O)[C@@H](NC(=O)[C@@H](NC(=O)[C@@H]2CCCN2C(=O)[C@H](CC(C)C)NC(=O)[C@@H](N)Cc2ccccc2)[C@@H](C)CC)[C@@H](C)CC)C(C)C)C(C)C)[C@@H](C)CC)CSSC[C@@H](C(=O)O)NC(=O)[C@H](CCCCN)NC(=O)[C@H](CCCCN)NC(=O)[C@H](CO)NC1=O [FLPIIAGVAAKVFPKIFCAISKKC] | MIC [9]: 5 µM (≈ 12.8 µg/mL)
25 µM (≈ 57.1 µg/mL) | ≥ 100 | CC[C@H](C)[C@H](NC(=O)[C@H](CC(C)C)NC(=O)[C@H](CC(=O)O)NC(=O)[C@H](CO)NC(=O)[C@@H](NC(=O)[C@H](C)NC(=O)[C@H](CCCCN)NC(=O)[C@@H](NC(=O)[C@H](C)NC(=O)[C@H](Cc1cnc[nH]1)NC(=O)[C@@H]1CCCN1C(=O)[C@@H](NC(=O)[C@H](CC(C)C)NC(=O)[C@@H]1CCCN1C(=O)CNC(=O)[C@@H](NC(=O)[C@H](Cc1ccc(O)cc1)NC(=O)[C@H](CCCCN)NC(=O)[C@H](CCSC)NC(=O)[C@H](Cc1ccccc1)NC(=O)CN)[C@@H](C)CC)[C@@H](C)CC)C(C)C)[C@@H](C)CC)C(=O)O [GFMKYIGPLIPHAVKAISDLI] | MIC [9]: ≥ 200 µM
10 µM (≈ 27.2 µg/mL) | ≥ 160 | CC[C@H](C)[C@H](NC(=O)CNC(=O)[C@H](CCC(N)=O)NC(=O)[C@H](Cc1ccccc1)NC(=O)[C@@H](NC(=O)[C@H](CCCCN)NC(=O)[C@H](CCCCN)NC(=O)[C@H](CC(C)C)NC(=O)[C@H](C)NC(=O)[C@H](CC(N)=O)NC(=O)[C@H](CC(C)C)NC(=O)CN)C(C)C)C(=O)N[C@@H](Cc1cnc[nH]1)C(=O)N[C@@H](CCC(=O)O)C(=O)N[C@@H](C)C(=O)N[C@H](C(=O)N[C@@H](CCCCN)C(=O)N[C@@H](CC(C)C)C(=O)N[C@@H](Cc1ccccc1)C(=O)N[C@@H](CC(N)=O)C(=O)N[C@@H](CC(N)=O)C(=O)N[C@@H](Cc1cnc[nH]1)C(=O)N[C@H](C(=O)N[C@@H](CCC(N)=O)C(=O)O)C(C)C)[C@@H](C)CC [GLNALKKVFQGIHEAIKLFNNHVQ] | 

From DBAASP
